What was measured:
Type in all cases: ADME, organism-based
[1] = Volume of distribution in neonates; conditions: human, in vivo
Homo sapiens [2] = assay: Apparent peripheral volume of distribution in preterm neonates with septicemia or invasive infections with gestational age of less than 32 weeks at 50000 U/kg, iv administered every 12 hrs; conditions: in vivo
[3] = Volume of distribution in central compartment in preterm neonates with septicemia or invasive infections with gestational age of less than 32 weeks at 50000 U/kg, iv administered every 12 hrs; conditions: human, in vivo, read-out: Vc
[4] = Volume of distribution at steady state in preterm neonates with septicemia or invasive infections with gestational age of less than 32 weeks at 50000 U/kg, iv administered every 12 hrs; conditions: human, in vivo, read-out: Vdss
Homo sapiens [5] = assay: Intercompartmental clearance in preterm neonates with septicemia or invasive infections with gestational age of less than 32 weeks at 50000 U/kg, iv administered every 12 hrs; conditions: in vivo
[6] = Clearance in iv dosed neonates with gestational age of 27 to 40 weeks; conditions: human, in vivo
[7] = Elimination half life in preterm neonates with septicemia or invasive infections with gestational age of less than 32 weeks at 50000 U/kg, iv administered every 12 hrs; conditions: human, in vivo, read-out: beta t1/2 (converted)
[8] = Half life in iv dosed neonates with gestational age of 27 to 40 weeks; conditions: human, in vivo
[9] = Volume of distribution in iv dosed neonates with gestational age of 27 to 40 weeks; conditions: human, in vivo
[10] = Clearance in preterm neonates with septicemia or invasive infections with gestational age of less than 32 weeks at 50000 U/kg, iv administered every 12 hrs; conditions: human, in vivo

Vd [1]	Vp/F (Homo sapiens [2])	Vd [3]	Vd [4]	CL (Homo sapiens [5])	clearance [6]	half-life [7]	half-life [8]	Vd [9]	clearance [10]	SMILES
0.3 L/kg										CC1(C)S[C@@H]2[C@H](NC(=O)[C@H](N)c3ccccc3)C(=O)N2[C@H]1C(=O)O [AMPICILLIN]
0.41 L/kg										CC1(C)S[C@@H]2[C@H](NC(=O)[C@H](N)c3ccc(O)cc3)C(=O)N2[C@H]1C(=O)O [AMOXICILLIN]
0.45 L/kg	0.152 L	0.359 L	0.54 L	0.774 L/h	2 mL/min/kg	3.9 h	3.8 h	0.61 L/kg	1.72 mL/min	CC1(C)S[C@@H]2[C@H](NC(=O)Cc3ccccc3)C(=O)N2[C@H]1C(=O)O [PENICILLIN G]

— ChEMBL document CHEMBL1138531, “Pharmacokinetics of penicillin G in infants with a gestational age of less than 32 weeks” (Antimicrob Agents Chemother, 2007)
